# Patent US10988477B2 (Merck Patent GmbH, priority 2018, dated 2021)
# Molecular target: GCN2 kinase (Homo sapiens, UniProt Q9P2K8)
# Test: GCN2 enzyme inhibition assay (Transcreener ADP2 fluorescence polarization)
# Type: biochemical
# Conditions: compounds of Formula II; 280 μM ATP, 4 nM GCN2 kinase
# Procedure, shortened: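 FP detection of ADP (antibody plus Alexa633 tracer) after a 1 h, 25 °C kinase reaction. Enzyme 4 nM, ATP 280 μM, (RS)7 peptide 200 μM, Tris pH 7.5 buffer with MgCl2 and DTT. Percent inhibition fitted by non-linear tight-binding algorithm for IC50 and Ki(app).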
# Sequence of GCN2 kinase (Q9P2K8 whole entry): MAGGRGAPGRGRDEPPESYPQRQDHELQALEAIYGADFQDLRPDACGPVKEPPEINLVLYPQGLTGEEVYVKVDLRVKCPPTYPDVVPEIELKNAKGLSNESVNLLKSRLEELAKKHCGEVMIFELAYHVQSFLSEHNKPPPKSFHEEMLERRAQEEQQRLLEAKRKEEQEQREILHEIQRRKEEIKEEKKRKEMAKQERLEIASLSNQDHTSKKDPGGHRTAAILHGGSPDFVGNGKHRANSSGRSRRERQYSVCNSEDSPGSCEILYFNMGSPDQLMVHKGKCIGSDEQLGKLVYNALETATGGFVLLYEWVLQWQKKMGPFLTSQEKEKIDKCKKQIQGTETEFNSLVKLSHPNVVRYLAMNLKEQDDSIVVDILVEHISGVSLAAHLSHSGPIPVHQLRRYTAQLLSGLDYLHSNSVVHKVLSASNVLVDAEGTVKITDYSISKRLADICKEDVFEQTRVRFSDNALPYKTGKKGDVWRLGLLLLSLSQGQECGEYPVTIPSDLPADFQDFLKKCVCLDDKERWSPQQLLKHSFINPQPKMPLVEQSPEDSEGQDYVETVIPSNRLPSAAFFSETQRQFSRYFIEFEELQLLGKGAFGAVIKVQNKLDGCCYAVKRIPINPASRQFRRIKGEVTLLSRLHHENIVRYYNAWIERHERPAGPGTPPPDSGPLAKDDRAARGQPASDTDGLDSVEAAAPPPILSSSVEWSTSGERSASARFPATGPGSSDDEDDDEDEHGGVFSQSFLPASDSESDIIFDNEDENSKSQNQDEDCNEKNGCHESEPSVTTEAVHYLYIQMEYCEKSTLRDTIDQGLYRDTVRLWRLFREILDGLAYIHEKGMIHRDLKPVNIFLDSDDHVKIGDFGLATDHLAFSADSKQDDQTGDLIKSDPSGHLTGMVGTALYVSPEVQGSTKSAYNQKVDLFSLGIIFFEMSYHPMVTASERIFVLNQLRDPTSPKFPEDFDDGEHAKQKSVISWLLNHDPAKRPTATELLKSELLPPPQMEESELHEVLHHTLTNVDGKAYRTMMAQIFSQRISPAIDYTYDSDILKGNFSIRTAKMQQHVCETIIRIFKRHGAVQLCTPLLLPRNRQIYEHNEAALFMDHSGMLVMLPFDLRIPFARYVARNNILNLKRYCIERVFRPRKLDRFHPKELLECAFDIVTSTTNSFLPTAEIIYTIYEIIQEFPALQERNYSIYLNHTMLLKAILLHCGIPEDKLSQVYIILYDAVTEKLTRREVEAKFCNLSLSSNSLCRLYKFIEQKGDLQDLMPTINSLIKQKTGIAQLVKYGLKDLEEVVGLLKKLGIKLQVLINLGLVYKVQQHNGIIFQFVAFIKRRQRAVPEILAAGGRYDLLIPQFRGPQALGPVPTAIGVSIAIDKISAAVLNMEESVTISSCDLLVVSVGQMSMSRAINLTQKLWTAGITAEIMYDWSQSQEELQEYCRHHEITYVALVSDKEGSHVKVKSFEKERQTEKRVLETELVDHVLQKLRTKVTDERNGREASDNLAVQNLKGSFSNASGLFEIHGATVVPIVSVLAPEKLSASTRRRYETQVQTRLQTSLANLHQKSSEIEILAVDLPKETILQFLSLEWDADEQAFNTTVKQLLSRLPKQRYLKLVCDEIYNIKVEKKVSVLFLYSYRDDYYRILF
row,SMILES,Ki [nM]
1,"CC1C(CO)CCCN1c1cc(-c2cnc3ccc(C(F)F)nn23)ncn1 (stereo not drawn) [II-555, (1-(6-(6-(Difluoromethyl)imidazo[1,2-b]pyridazin-3-yl)pyrimidin-4-yl)-2-methylpiperidin-3-yl)methanol]",10 to 1000
2,"CC1C(CO)N(C(C)(C)C)CCN1c1cc(-c2cnc3ccc(C(F)F)nn23)ncn1 (stereo not drawn) [II-556, (1-(tert-Butyl)-4-(6-(6-(difluoromethyl)imidazo[1,2-b]pyridazin-3-yl)pyrimidin-4-yl)-3-methylpiperazin-2-yl)methanol]",10 to 1000
3,"CC1C(CNS(C)(=O)=O)N(C(C)(C)C)CCN1c1cc(-c2cnc3ccc(C(F)F)nn23)ncn1 (stereo not drawn) [II-559, N-((1-(tert-Butyl)-4-(6-(6-(difluoromethyl)imidazo[1,2-b]pyridazin-3-yl)pyrimidin-4-yl)-3-methylpiperazin-2-yl)methyl)methanesulfonamide]",10 to 1000
4,"CS(=O)(=O)NCC1CN(c2cc(-c3cnc4ccc(C(F)F)nn34)ncn2)C[C@@H]2CCCN12 (stereo partly drawn) [II-560, N-(((8aS)-2-(6-(6-(Difluoromethyl)imidazo[1,2-b]pyridazin-3-yl)pyrimidin-4-yl)octahydropyrrolo[1,2-a]pyrazin-4-yl)methyl)methanesulfonamide]",< 10
5,"[2H]C([2H])([2H])N1CCN(c2cc(-c3cnc4ccc(C(F)F)nn34)ncn2)C(C)C1CNS(C)(=O)=O (stereo not drawn) [II-561, N-((4-(6-(6-(Difluoromethyl)imidazo[1,2-b]pyridazin-3-yl)pyrimidin-4-yl)-3-methyl-1-(methyl-d3)piperazin-2-yl)methyl)methanesulfonamide]",10 to 1000
6,"[2H]C([2H])([2H])N1CCN(c2cc(-c3cnc4ccc(C(F)F)nn34)ncn2)C(C)C1CNS(C)(=O)=O (stereo not drawn) [II-562, N-((4-(6-(6-(Difluoromethyl)imidazo[1,2-b]pyridazin-3-yl)pyrimidin-4-yl)-3-methyl-1-(methyl-d3)piperazin-2-yl)methyl)methanesulfonamide]",< 10
7,"O=S1(=O)CCCC1C1CCCN(c2cc(-c3cnc4ccc(C(F)F)nn34)ncn2)C1 (stereo not drawn) [II-563, 2-(1-(6-(6-(Difluoromethyl)imidazo[1,2-b]pyridazin-3-yl)pyrimidin-4-yl)piperidin-3-yl)tetrahydrothiophene 1,1-dioxide]",10 to 1000
8,"CS(=O)(=O)NCC1CN(c2cc(-c3cnc4ccc(C(F)F)nn34)ncn2)CCC12CC2 (stereo not drawn) [II-566, N-((6-(6-(6-(Difluoromethyl)imidazo[1,2-b]pyridazin-3-yl)pyrimidin-4-yl)-6-azaspiro[2.5]octan-4-yl)methyl)methanesulfonamide]",< 10
9,"CC1(C)CN(c2cc(-c3cnc4ccc(C(F)F)nn34)ncn2)CC(CNS(C)(=O)=O)N1 (stereo not drawn) [II-567, N-((4-(6-(6-(Difluoromethyl)imidazo[1,2-b]pyridazin-3-yl)pyrimidin-4-yl)-6,6-dimethylpiperazin-2-yl)methyl)methanesulfonamide]",10 to 1000
10,"CS(=O)(=O)NCC1CN(c2cc(-c3cnc4ccc(C(F)F)nn34)ncn2)C[C@@H]2C[C@H](F)CN12 (stereo partly drawn) [II-568, N-(((7S,8aS)-2-(6-(6-(Difluoromethyl)imidazo[1,2-b]pyridazin-3-yl)pyrimidin-4-yl)-7-fluorooctahydropyrrolo[1,2-a]pyrazin-4-yl)methyl)methanesulfonamide]",< 10
11,"CC1(C)CN(c2cc(-c3cnc4ccc(C(F)F)nn34)ncn2)CC(CNS(C)(=O)=O)N1 (stereo not drawn) [II-569, N-((4-(6-(6-(Difluoromethyl)imidazo[1,2-b]pyridazin-3-yl)pyrimidin-4-yl)-6,6-dimethylpiperazin-2-yl)methyl)methanesulfonamide]",10 to 1000
12,"CC1(C)CN(c2cc(-c3cnc4ccc(C(F)F)nn34)ncn2)CC(CNS(C)(=O)=O)N1 (stereo not drawn) [II-570, N-((4-(6-(6-(Difluoromethyl)imidazo[1,2-b]pyridazin-3-yl)pyrimidin-4-yl)-6,6-dimethylpiperazin-2-yl)methyl)methanesulfonamide]",10 to 1000
